#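 Five compound concentrations were applied to cells in 96-well plates for 48 hours; endpoints were derived by simple linear interpolation of the resulting dose-response curve. GI50 = concentration required for 50% inhibition of growth. TGI is the concentration that stops growth completely.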
# Assays:
# Experiment in all cases: DTP human tumour cell line panel, 48 h
# COLO 205 colon = system: COLO 205 colon
# T-47D breast = system: T-47D breast
# HCC-2998 colon = system: HCC-2998 colon
# OVCAR-5 ovarian = system: OVCAR-5 ovarian
# IGROV1 ovarian = system: IGROV1 ovarian
# UO-31 renal = system: UO-31 renal
# HOP-62 NSCLC = system: HOP-62 NSCLC
# CCRF-CEM leukemia = system: CCRF-CEM leukemia
# ACHN renal = system: ACHN renal
# PC-3 prostate = system: PC-3 prostate
SMILES,GI50 (COLO 205 colon) [µM],TGI (COLO 205 colon) [µM],GI50 (T-47D breast) [µM],TGI (T-47D breast) [µM],GI50 (HCC-2998 colon) [µM],TGI (HCC-2998 colon) [µM],GI50 (OVCAR-5 ovarian) [µM],TGI (OVCAR-5 ovarian) [µM],GI50 (IGROV1 ovarian) [µM],TGI (IGROV1 ovarian) [µM],GI50 (UO-31 renal) [µM],TGI (UO-31 renal) [µM],GI50 (HOP-62 NSCLC) [µM],TGI (HOP-62 NSCLC) [µM],GI50 (CCRF-CEM leukemia) [µM],TGI (CCRF-CEM leukemia) [µM],GI50 (ACHN renal) [µM],TGI (ACHN renal) [µM],GI50 (PC-3 prostate) [µM],TGI (PC-3 prostate) [µM]
NC(N)=N/N=C\c1ccc(OCc2ccccc2)cc1,1.74,3.44,1.45,4.22,1.67,3.2,2.95,15.5,3.42,18.3,2.7,17.5,2.42,10.5,2.73,10,2.64,8.66,2.41,10.6
CCCCCCCC/C=C/CCCCCCCC1=NC(C)(C)CN1C(C)(C)CO,1.88,3.42,3.39,11.8,1.65,3.04,2.15,5.09,–,–,–,–,1.76,3.28,3.04,11.4,1.81,3.52,1.83,4.92
COc1ccc(-c2ccc(OC)c(OC)c2OC)cc1,1.74,6.83,5.87,> 100,2.65,32,8.66,> 100,4.08,> 100,4.6,> 100,2.87,> 100,2.19,> 100,8,> 100,3.62,> 100
CN1CCN(C2=NC(=O)/C(=C\c3ccc(N(C)C)cc3)S2)CC1,> 100,> 100,36.7,> 100,> 100,> 100,> 100,> 100,72.5,> 100,71,> 100,> 100,> 100,38.4,> 100,> 100,> 100,> 100,> 100
Cn1c(COC(=O)NCCc2ccccn2)nc2c(N3CCOCC3)nc(Cl)nc21,1.72,3.61,1.65,3.67,1.76,3.57,1.73,3.68,1.31,2.84,1.19,2.45,1.65,4.88,0.62,12.6,1.27,2.57,1.64,3.56
CC(C)Cc1cnc(CC(C)C)c(=O)[nH]1,–,> 100,–,> 100,–,> 100,–,> 100,–,> 100,–,> 100,–,> 100,–,> 100,–,> 100,–,> 100
NCCO/C=C/C(N)C(=O)O (configuration not stated),–,> 100,–,> 100,–,> 100,–,> 100,–,> 100,–,> 100,–,> 100,–,> 100,–,> 100,–,> 100
Cc1cccc(N2C(=O)/C(=C/C(Cl)=C/c3ccc([N+](=O)[O-])cc3)SC2=S)c1C,1.81,5.08,2.7,> 100,1.72,3.54,2.43,5.67,–,–,1.29,2.56,2.69,9.02,0.741,> 89.5,1.43,2.75,1.39,4.93
COc1ccc(-n2cc(-c3ccc(OC)c(OC)c3)[nH]c2=O)cc1,> 100,> 100,> 100,> 100,> 100,> 100,> 100,> 100,> 100,> 100,> 100,> 100,> 100,> 100,> 100,> 100,> 100,> 100,> 100,> 100
O=S(=O)(NC1=NCCN1C(=S)SN1CCn2c1nsc2=S)c1ccc(Cl)cc1,4.36,14.8,5.38,23.3,11,23.6,17.9,36.5,10.2,23.4,2.28,5.92,19.5,41,–,–,6.05,18.6,7.54,22.1
CN(C)CCC(=O)Nc1ccc(-n2cc(-c3cccc(NC(=S)Nc4cccc(-c5cn(-c6ccc(NC(=O)CCN(C)C)cc6)nn5)c4)c3)nn2)cc1,14.2,45.7,34.1,> 100,> 100,> 100,20.6,52.8,–,–,–,–,33.1,> 100,21.4,78.3,> 100,> 100,85.9,> 100
COc1cc(N2C(=O)[C@H](Cl)C2c2ccc(SC)cc2)cc(OC)c1OC (some centres not stated),0.0677,11.4,41.3,> 100,0.235,> 100,0.411,> 100,0.0672,> 100,–,–,0.263,> 100,0.305,> 100,0.061,71.3,0.0952,> 100
O=C(Nc1sc2c(c1C(=O)O)CCCC2)c1ccco1,44.2,> 50,> 50,> 50,–,–,–,–,> 50,> 50,> 50,> 50,> 50,> 50,> 50,> 50,14.1,> 50,45.9,> 50

# — PubChem BioAssay (NCI)
